Test results taken from patent US20070117794A1, “Methods of treatment using oxytocin receptor agonists” (Wyeth, priority 2005, published 2007).
Entries after “also recorded” stand apart in the source; their conditions may differ.

Assays:
Male Swiss-Webster mice = assay: Four-Plate Test (FPT), punished crossings; format: in vivo, mouse; settings: for reversal of the anxiolytic-like effect of cpd A / blockade of the anxiolytic-like effect of cpd A (in words): co-administered with cpd A 10 mg/kg; for blockade of the anxiolytic-like effect of cpd A (in words): cpd B 10-30 mg/kg
Procedure: Animals: Male Swiss-Webster mice weighing 18-24 g were housed in groups of 15 in hanging wire cages, allowed access to food and water ad libitum, and maintained on a 12-hour light dark cycle. All behavioral testing was performed during the light cycle. All studies were previously approved by the Institutional Animal Care and Use Committee, and performed in accordance to the Guide for the Care and Use of Laboratory Animals as adopted and promulgated by the National Institutes of Health.
Test Compounds: Oxytocin (American Peptide Company, Sunnyvale, Calif.) was dissolved in a saline vehicle. The oxytocin agonist 4,-(3,5-Dihydroxy-benzyl)-piperazine-1-carboxylic acid 2-methyl-4-(3-methyl-4,10-dihydro-3H-2,3,4,9-tetra-aza-benzo[f]azulene-9-carbonyl)-benzylamide (hereinafter “cpd A”) and oxytocin antagonist 10-[(2-Methyl-2′-trifluoromethyl-[1,1′-biphenyl]-4-yl)carbonyl]-10,11-dihydro-5H-pyrrolo[2,1-c][1,4]benzodiazepine-3-carboxylic acid-bis-(2-hydroxy-ethyl)-amide (hereinafter “cpd B”) (Patent W/O 02/083680) were prepared and dissolved in a 1% Tween-80/1% DMSO/saline vehicle.
ICV injections: Mice were lightly anesthetized with halothane. Oxytocin was administered into either the left or right ventricle by visual location. A 26 gauge Hamilton syringe with 3 mm needle was used for injections and the injection site was visualized by locating the middle of the invisible line that runs diagonally from the left eye to the right ear. Test compounds were injected in a 2 μl total volume.
Four-Plate Test (FPT:) The four-plate apparatus consists of a Plexiglas chamber (18×25×16 cm) floored with four identical rectangular metal plates (8×11 cm), which are separated from one another by a gap of 4 mm and connected to a computerized device that can deliver electric shocks (0.8 mA, 0.5 sec) (Aron et al. Evaluation of a rapid technique for detecting minor tranquilizers, Neuropharmacology 10: 459-69 (1971)). In this test, mice are placed into the chamber and following a brief (18 seconds) habituation period, the animal's innate motivation to explore the novel environment is suppressed by the delivery of a mild foot shock every time the animal crosses any of the boundaries (gaps) while moving from one plate to another (referred to as a ‘punished crossing’). Following any punished crossing, there is a 3-second time out where the mouse may cross the electric plates without receiving another shock. An experimenter blind to the dosing conditions administers shocks, and a computer records the total number of punished crossings an animal makes during a 1-minute testing period. […] Pharmacol Biochem Behav 65: 339-44 (2000)). In all experiments, the testing procedure consisted of either a single injection or two injections followed by a test session 30 minutes later.
Statistical Analysis: One-way analysis of variance (ANOVA) was performed to determine effects of test compound treatments, followed by Least Significant Difference Tests for a post hoc analysis. All figures are shown with average ±SEM.

[1] = tested on: Male Sprague-Dawley derived Rats; assay: Prepulse inhibition of the acoustic startle reflex (PPI), MK801 disrupted; format: in vivo, rat
From the text: (§1) Prepulse inhibition of the acoustic startle reflex (PPI) is an operational measure of sensorimotor gating that can be measured across many species. Deficits in PPI have been reported in patients with schizophrenia, leading to its use as a preclinical model of the disease. In rats, PPI is decreased in a manner homologous to that seen in schizophrenia following administration of certain psychotomimetic drugs (e.g. MK801; amphetamine). In our study we utilized MK801, a non-competitive NMDA antagonist and d-Amphetamine, a non-selective dopamine agonist.
(§2) Animals: Male Sprague-Dawley derived Rats (SD) weighing 200-250 g were group housed in standard bedding cages, allowed access to food and water ad libitum, and maintained on a 12-hour light dark cycle. All behavioral testing was performed during the light cycle. All studies were previously approved by the Institutional Animal Care and Use Committee, and performed in accordance to the Guide for the Care and Use of Laboratory Animals as adopted and promulgated by the National Institutes of Health.
(§3) Test Compounds: The oxytocin agonist cpd A was dissolved in a 1% Tween-80/1% DMSO/saline vehicle. MK801 (Sigma, St. Louis, Mo.) was dissolved in 2% Tween-80/saline. d-Amphetamine (Sigma, St. Louis, Mo.) was dissolved in saline.
(§4) Each testing chamber (SR-LAB system, San Diego Instruments) consisted of a Plexiglas cylinder (8.8 cm in diameter) mounted on a frame and held in position by four metal pins to a base unit. Movement of the rat within the cylinder was detected by a piezoelectric accelerometer attached below the frame. […] Presentation of acoustic pulse and prepulse stimuli were controlled by the SR-LAB software and interface system, which also digitized, rectified and recorded the responses from the accelerometer. Mean startle amplitude was determined by averaging 100, 1 ms readings taken from the beginning of the pulse stimulus onset. For calibration purposes, sound levels were measured with a Quest sound level meter, scale “A”, with the microphone placed inside the Plexiglas cylinder. […]
Startle amplitude was defined as the mean value of pulse alone trials. To evaluate the effect of drug treatment on startle response, data from the pulse alone trials was analyzed using one-factor ANOVA with repeated measures (one-way randomized block design), followed by a least significant difference (LSD) post-hoc test (comparison was made to vehicle/disrupting agent control). […] Although data for gating at three different prepulse intensities was generated, an averaged gating score across all prepulse intensities was calculated and this was analyzed by one factor ANOVA with repeated measures (one-way randomized block design). […]

male rats = settings: OT 1-4 ug/kg, s.c.; cited from earlier work
mouse = settings: OT 3 mg/kg, i.p.; cited from earlier work
rats = settings: cited from earlier work
OTR = biological target: T1, OTR (Homo sapiens, UniProt P30559); settings: cited from earlier work
T1 sequence (P30559 1-389): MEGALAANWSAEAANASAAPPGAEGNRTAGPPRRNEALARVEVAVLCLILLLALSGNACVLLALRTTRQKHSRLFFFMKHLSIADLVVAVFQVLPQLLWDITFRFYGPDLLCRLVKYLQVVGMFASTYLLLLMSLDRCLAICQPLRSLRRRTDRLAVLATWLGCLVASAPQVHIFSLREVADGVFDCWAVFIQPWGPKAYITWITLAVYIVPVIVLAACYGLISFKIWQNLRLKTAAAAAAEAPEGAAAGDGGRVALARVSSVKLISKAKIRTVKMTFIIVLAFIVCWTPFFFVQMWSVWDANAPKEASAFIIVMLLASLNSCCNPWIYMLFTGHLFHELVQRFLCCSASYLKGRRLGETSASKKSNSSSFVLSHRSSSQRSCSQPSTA

rat = settings: subcutaneous oxytocin; deficit induced by dizocilpine and amphetamine; cited from earlier work
[2] = tested on: Male Sprague-Dawley derived Rats; assay: Prepulse inhibition of the acoustic startle reflex (PPI), d-Amphetamine disrupted; format: in vivo, rat; settings: for reversal of d-amphetamine induced disruption of PPI: i.p., 30 mins prior to test, hydrochloride
From the text: as §1, §2, §3, §4

SMILES: CC[C@H](C)[C@@H]1NC(=O)[C@H](Cc2ccc(O)cc2)NC(=O)[C@@H](N)CSSC[C@@H](C(=O)N2CCC[C@H]2C(=O)N[C@@H](CC(C)C)C(=O)NCC(N)=O)NC(=O)[C@H](CC(N)=O)NC(=O)[C@H](CCC(N)=O)NC1=O [Oxytocin]
- increase in punished crossings from vehicle (Male Swiss-Webster mice; oxytocin 3 μg, icv, 30 minutes prior to testing, p<0.05): 30%
- increase in punished crossings from vehicle (Male Swiss-Webster mice; oxytocin 10 μg, icv, 30 minutes prior to testing, p<0.05): 51%
- punished crossings (effect in words) (Male Swiss-Webster mice; oxytocin 1-10 μg icv (b94 prints 1-10 mg), 30 minutes prior to testing): dose-dependent increase in punished crossings
- reversal of MK801 induced deficits in PPI ([1]; oxytocin 0.04-1 mg/kg s.c., data not shown): reversed the MK801 induced deficits in PPI in rats in a dose dependent manner
- peripheral locomotor activity in the Open-Field model (male rats): decrease in peripheral locomotor activity
- activity in elevated-plus maze (mouse): anxiolytic-like activity
- open arm entries and time spent in the open arms of the elevated plus-maze (rats; OT 10-100 ng, i.c.v.): increases in open arm entries and time spent in the open arms
- activity in the elevated-plus maze (rats; pregnant or lactating rats, but not virgin rats): Anxiolytic activity
- selectivity for OT compared to AVP at the OTR (OTR): 10 fold
- restoration of prepulse inhibition (rat): dose-dependently restore prepulse inhibition

SMILES: C[C@]12N[C@H](Cc3ccccc31)c1ccccc12 [MK801]
- disruption of PPI ([1]; MK801 0.1 mg/kg s.c., 10 min prior to test, 5 dB, 10 dB & 15 dB prepulse, 0.1 mg/kg): produced significant disruption in PPI across three prepulse intensities; also recorded: produced significant disruption across all three prepulse intensities
- startle alone ([1]; MK801 0.1 mg/kg s.c., 10 min prior to test, p >0.05): no effect on startle alone

SMILES: C[C@H](N)Cc1ccccc1 [d-Amphetamine]
- disruption of PPI ([2]; d-Amphetamine 4 mg/kg s.c., 10 min prior to test, 5 dB, 10 dB & 15 dB prepulse): produced significant disruption across all three prepulse intensities

SMILES: Cc1cc(C(=O)N2Cc3ccc(C(=O)N(CCO)CCO)n3Cc3ccccc32)ccc1-c1ccccc1C(F)(F)F [cpd B, 10-[(2-Methyl-2′-trifluoromethyl-[1,1′-biphenyl]-4-yl)carbonyl]-10,11-dihydro-5H-pyrrolo[2,1-c][1,4]benzodiazepine-3-carboxylic acid-bis-(2-hydroxy-ethyl)-amide]
- reversal of the anxiolytic-like effect of cpd A (Male Swiss-Webster mice; cpd B 10 mg/kg, ip): 63%
- reversal of the anxiolytic-like effect of cpd A (Male Swiss-Webster mice; cpd B 30 mg/kg, ip, p<0.05): 100%
- blockade of the anxiolytic-like effect of cpd A (in words) (Male Swiss-Webster mice; ip): blocked the anxiolytic-like effect of cpd A in a dose-dependent manner
- blockade of the anxiolytic-like effect of cpd A (in words) (Male Swiss-Webster mice; ip, listed as Cpd B): dose-dependently blocks the anxiolytic-like effect of Cpd A
- punished crossings (effect in words) (Male Swiss-Webster mice; cpd B administered alone): no effect on punished crossings

SMILES: Cc1cc(C(=O)N2Cc3cnn(C)c3Nc3ccccc32)ccc1CNC(=O)N1CCN(Cc2cc(O)cc(O)c2)CC1.Cl [Cpd A (HCl salt), 4,-(3,5-Dihydroxy-benzyl)-piperazine-1-carboxylic acid 2-methyl-4-(3-methyl-4,10-dihydro-3H -2,3,4,9-tetra-aza-benzo[f]azulene-9-carbonyl)-benzylamide hydrochloride]
- reversal of d-amphetamine induced disruption of PPI ([2]; Cpd A (HCl salt) 10 mg/kg, 10 mg/kg): reversed d-amphetamine induced disruption at 5 dB and 10 dB; also recorded: reversed d-amphetamine—induced deficit at 5 dB and 10 dB
- reversal of d-amphetamine induced disruption of PPI ([2]; Cpd A (HCl salt) 30 mg/kg, 30 mg/kg): reversed the d-amphetamine induced disruption at 10 dB

SMILES: Cc1cc(C(=O)N2Cc3cnn(C)c3Nc3ccccc32)ccc1CNC(=O)N1CCN(Cc2cc(O)cc(O)c2)CC1 [cpd A, 4,-(3,5-Dihydroxy-benzyl)-piperazine-1-carboxylic acid 2-methyl-4-(3-methyl-4,10-dihydro-3H-2,3,4,9-tetra-aza-benzo[f]azulene-9-carbonyl)-benzylamide]
- increase in punished crossings from vehicle (Male Swiss-Webster mice; cpd A 10 mg/kg, ip, 30 minutes prior to testing, p<0.05): 32%
- punished crossings (effect in words) (Male Swiss-Webster mice; cpd A 10 mg/kg, ip, antagonist study (FIG. 3), p<0.05, 10 mg/kg): increases punished crossings; also recorded: increased punished crossings compared to vehicle
- increase in punished crossings from vehicle (Male Swiss-Webster mice; cpd A 30 mg/kg, ip, 30 minutes prior to testing, p<0.05): 25%
- punished crossings (effect in words) (Male Swiss-Webster mice; cpd A 3-100 mg/kg, ip, 30 minutes prior to testing): increases the number of punished crossings; also recorded: significant overall effect on punished crossings
- reversal of MK801 induced deficits in PPI ([1]; Cpd A 30 mg/kg i.p. (highest dose of 3-30 mg/kg), 30 mins prior to test): reversed MK801 induced deficits in PPI at 10 dB & 15 dB levels; also recorded: reversed MK801 induced disruption at 10 dB and 15 dB
